Measurements reported in article PMC5481828, “Construction of a synthetic metabolic pathway for biosynthesis of the non-natural methionine precursor 2,4-dihydroxybutyric acid” (Nature Communications, 2017).

Key:
Ec-LysC = Ec-LysC (Escherichia coli, UniProt P08660); conditions: 2 mM ATP, 5 mM MgCl2, 50 mM KCl, Hepes pH 7.5, 37 °C
Ms-Ssr = target: T1, Ms-Ssr (Metallosphaera sedula, UniProt A4YGN0); test: NAD(P)H oxidation at […] nm; format: biochemical; conditions: NADPH 0.2 mM, Hepes pH 7.5, 50 mM KCl, 5 mM MgCl2, 37 °C; read-out: affinity
T1 construct: gene Msed_1424
T1 sequence (A4YGN0 1-360): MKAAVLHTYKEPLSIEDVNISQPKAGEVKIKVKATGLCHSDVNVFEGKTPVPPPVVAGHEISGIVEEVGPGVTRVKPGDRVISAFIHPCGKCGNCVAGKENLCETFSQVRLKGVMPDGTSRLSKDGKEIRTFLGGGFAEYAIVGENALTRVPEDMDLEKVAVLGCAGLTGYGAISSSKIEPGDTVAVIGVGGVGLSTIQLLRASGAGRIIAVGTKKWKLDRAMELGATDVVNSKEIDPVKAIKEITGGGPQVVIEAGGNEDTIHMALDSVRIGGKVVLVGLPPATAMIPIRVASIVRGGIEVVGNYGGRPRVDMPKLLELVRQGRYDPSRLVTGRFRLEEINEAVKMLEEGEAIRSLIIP

Bs-Asd = Bs-Asd (Bacillus subtilis, UniProt Q04797, E218Q); test: NADPH oxidation, substrate made in situ by malate kinase; format: biochemical; conditions: biosynthetic direction, 0.2 mM NADPH, 2 mM ATP, 20 mM malate, Hepes pH 7, 37 °C
Sequence of Bs-Asd (Q04797 whole entry E218Q): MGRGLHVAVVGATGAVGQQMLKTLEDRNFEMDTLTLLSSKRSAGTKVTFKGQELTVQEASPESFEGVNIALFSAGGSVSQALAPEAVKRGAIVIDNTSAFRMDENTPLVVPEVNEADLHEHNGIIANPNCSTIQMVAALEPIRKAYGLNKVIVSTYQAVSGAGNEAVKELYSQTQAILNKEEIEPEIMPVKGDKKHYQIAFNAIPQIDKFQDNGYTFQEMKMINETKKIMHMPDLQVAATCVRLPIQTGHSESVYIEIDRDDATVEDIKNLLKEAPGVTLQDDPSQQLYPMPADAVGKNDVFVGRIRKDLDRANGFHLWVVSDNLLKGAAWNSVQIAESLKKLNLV

Mj-Asd = target: T2, Mj-Asd (Methanocaldococcus jannaschii, UniProt Q57658); test: as above; format: biochemical; conditions: biosynthetic direction, 0.2 mM NADPH, 2 mM ATP, 20 mM malate, Hepes pH 7, 37 °C
T2 sequence (Q57658 1-354): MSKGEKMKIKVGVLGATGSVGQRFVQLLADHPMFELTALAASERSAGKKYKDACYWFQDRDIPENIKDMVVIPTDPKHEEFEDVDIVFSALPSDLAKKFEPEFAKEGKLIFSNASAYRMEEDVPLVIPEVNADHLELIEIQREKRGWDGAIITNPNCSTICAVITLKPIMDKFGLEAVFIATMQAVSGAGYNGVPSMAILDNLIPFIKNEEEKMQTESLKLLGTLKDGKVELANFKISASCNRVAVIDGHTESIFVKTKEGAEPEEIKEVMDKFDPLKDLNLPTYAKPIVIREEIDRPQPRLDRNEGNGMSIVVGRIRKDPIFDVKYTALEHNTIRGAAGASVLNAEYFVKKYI

Sequence of Ec-LysC (P08660 whole entry): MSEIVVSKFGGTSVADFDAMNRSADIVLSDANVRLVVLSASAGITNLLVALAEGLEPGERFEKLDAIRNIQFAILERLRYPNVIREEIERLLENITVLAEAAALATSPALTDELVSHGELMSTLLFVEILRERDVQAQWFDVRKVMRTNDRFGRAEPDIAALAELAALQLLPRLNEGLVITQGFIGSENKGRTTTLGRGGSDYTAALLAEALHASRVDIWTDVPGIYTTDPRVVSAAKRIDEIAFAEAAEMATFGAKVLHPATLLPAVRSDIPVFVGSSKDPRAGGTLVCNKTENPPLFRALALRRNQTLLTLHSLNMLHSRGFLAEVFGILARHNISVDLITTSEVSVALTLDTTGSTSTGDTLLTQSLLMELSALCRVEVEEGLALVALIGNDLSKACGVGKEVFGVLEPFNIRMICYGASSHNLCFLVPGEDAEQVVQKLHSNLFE

SMILES: N[C@@H](CC(=O)O)C(=O)O [(L)-aspartate]
- Km (Ec-LysC): Catalytic efficiency (kcat/Km) of wild-type aspartate kinase

SMILES: O=CC[C@H](O)C(=O)O [MSA, malate semialdehyde]
- Km (Ms-Ssr): 1100 µM

SMILES: O=C(C[C@H](O)C(=O)O)OP(=O)(O)O [malyl-P, malyl-4-phosphate]
- NADPH oxidation, substrate made in situ by malate kinase (Bs-Asd): Bs-Asd E218Q mutant enzyme, which displayed an almost eightfold increased activity on malyl-P
- NADPH oxidation, substrate made in situ by malate kinase (Mj-Asd): Enzymatic activities of wild-type Bs-Asd and Mj-Asd on malyl-P were approximately threefold lower
